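Following 48 hours of exposure in 96-well plates, responses at five concentrations were used to interpolate endpoints linearly. Here, GI50 denotes the concentration required for 50% inhibition of growth. TGI: total growth inhibition.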
What was measured:
Assay in all cases: NCI tumour cell line growth inhibition, 48 h
[1] = tested on: RXF 393 renal
[2] = tested on: HOP-92 NSCLC
[3] = tested on: A549 NSCLC
[4] = tested on: MOLT-4 leukemia
[5] = tested on: ACHN renal
[6] = tested on: HT29 colon
[7] = tested on: EKVX NSCLC
[8] = tested on: UACC-62 melanoma
[9] = tested on: DU-145 prostate
[10] = tested on: A498 renal

Structure (SMILES)	TGI [1]	TGI [2]	TGI [3]	TGI [4]	TGI [5]	TGI [6]	TGI [7]	TGI [8]	GI50 [2]	GI50 [3]	GI50 [4]	GI50 [5]	GI50 [6]	GI50 [9]	TGI [9]	GI50 [8]	TGI [10]	GI50 [1]	GI50 [7]
O=C(N/C(=C\c1ccc([N+](=O)[O-])cc1)c1nc2ccc(Cl)cc2[nH]1)c1ccccc1	58.3 µM	34.3 µM	74.8 µM	54 µM	66.8 µM	43.9 µM	74.6 µM	50.1 µM											
S=P(c1ccccc1)(c1ccccc1)C1(C2(P(=S)(c3ccccc3)c3ccccc3)CC2)CC1	> 100 µM		> 100 µM	> 100 µM	> 100 µM	> 100 µM	> 100 µM	> 100 µM											
Cc1cccc2c1O/C(=C\c1ncc([N+](=O)[O-])n1C)C2=O		1.64 µM	2.26 µM	0.833 µM	0.341 µM	0.404 µM		1.09 µM	0.279 µM	0.382 µM	0.0449 µM	0.0595 µM	0.104 µM	0.238 µM	0.762 µM	0.316 µM			
CCN(CC)C(=O)CNC(=O)OC(C)(C)C	> 100 µM	> 100 µM	> 100 µM	> 100 µM	> 100 µM	> 100 µM	> 100 µM	> 100 µM									> 100 µM		
C[Si](C)(C)/C=C\CCCN1C(=O)CCC1=O		> 100 µM	> 100 µM	> 100 µM	> 100 µM	> 100 µM	> 100 µM	> 100 µM									> 100 µM		
O=C1NC(=O)C(=O)C(c2nc3ccccc3s2)C1=O	> 100 µM	> 100 µM	> 100 µM	> 100 µM	> 100 µM	> 100 µM	> 100 µM	> 100 µM									> 100 µM		
Cc1ccc(NC(=O)CC/C(CC(=O)c2ccc(Cl)cc2)=N\NC(=O)C(=O)NN)cc1C	> 100 µM		> 100 µM	> 100 µM	> 100 µM	> 100 µM	> 100 µM	> 100 µM									> 100 µM		
CC(=O)O[C@H]1CCC2[C@@H]3CCC4Nc5c(cnn5-c5ccccc5)C[C@]4(C)C3CC[C@@]21C (stereo partly specified)	24.6 µM		68.7 µM	33.7 µM	48.1 µM	34.9 µM	16.5 µM	22.6 µM									> 100 µM		
O=C(NC1CCN(Cc2ccccc2)CC1)c1cc(C(=O)NC2CCN(Cc3ccccc3)CC2)cc(C(=O)NC2CCN(Cc3ccccc3)CC2)c1	10.2 µM	12.3 µM	15.4 µM	3.16 µM	> 50 µM	4.17 µM		15.2 µM	5.55 µM	6.68 µM	1.22 µM	> 50 µM	1.3 µM	18.2 µM	> 50 µM	7.71 µM		2.16 µM	
c1ccc2c(c1)nnn2CNc1ccc(N2CCOCC2)cc1	> 100 µM	> 100 µM	> 100 µM	> 100 µM	> 100 µM	> 100 µM	> 100 µM	> 100 µM									> 100 µM		
CC1=C2C(=O)C(C)(C)C=C2C(=O)[C@](C)(O)C12CC2	> 1 µM	> 1 µM	> 1 µM	> 1 µM	> 1 µM	> 1 µM	> 1 µM	> 1 µM									> 1 µM		
C/C(=N\NS(=O)(=O)c1ccc(C)cc1)c1c(O)cc(C)oc1=O		> 100 µM	> 100 µM	> 100 µM	> 100 µM	> 100 µM	> 100 µM	> 100 µM									> 100 µM		
C[C@@H](NC1CCC[C@@H]1O)c1ccccc1 (stereo partly specified)	> 100 µM	> 100 µM	> 100 µM	> 100 µM	> 100 µM	> 100 µM	> 100 µM	> 100 µM											
CC(C(=O)c1ccccc1)C1(O)C(=O)Nc2ccccc21 (stereo unspecified)	> 100 µM	> 100 µM	> 100 µM	> 100 µM	> 100 µM	> 100 µM	> 100 µM	> 100 µM									> 100 µM		
CCOC(=O)CNC1C(NC(C)=O)C(OC)OC2COC(c3ccccc3)OC21 (stereo unspecified)	> 100 µM	> 100 µM	> 100 µM		> 100 µM	> 100 µM	> 100 µM	> 100 µM									> 100 µM		
CCN(CC)CCOC(=O)/C(=C/c1ccc(OC)cc1)c1cc(OC)c(OC)c(OC)c1	5 µM	54.1 µM	> 100 µM	> 100 µM	> 100 µM	18 µM	> 100 µM	24.1 µM									8.64 µM		
COc1cc2ccc(/C(C)=N/OC(C)=O)cc2cc1OC	> 100 µM	> 100 µM	> 100 µM	> 100 µM	> 100 µM	> 100 µM	> 100 µM	> 100 µM									76.9 µM		
Cc1[nH]c2ccccc2c1C1CC(=O)NC1=O (stereo unspecified)	> 100 µM		> 100 µM	> 100 µM	> 100 µM		> 100 µM	> 100 µM									> 100 µM		
COc1cc2c(=O)n(CCCn3ccnc3)c3c4cc5c(cc4ccc3c2cc1OC)OCO5	14.3 µM	28.9 µM	> 100 µM		1.36 µM	> 100 µM	> 100 µM		0.831 µM	1.96 µM		0.278 µM	0.492 µM	0.51 µM	> 100 µM			0.316 µM	9.72 µM
CC([C@H]1CCC2C3CCC4CC5(CC[C@]4(C)C3CC[C@@]21C)c1ccccc1C(=O)N5C)N(C)C (stereo partly specified)	> 100 µM	> 100 µM	> 100 µM	91.7 µM	> 100 µM	68.2 µM		73 µM									> 100 µM		
O=S1c2ccccc2N=C(c2ccc(Cl)cc2)CC1c1cccs1 (stereo unspecified)	47.6 µM	72.5 µM	> 100 µM	98.7 µM	> 100 µM	49.4 µM	> 100 µM	64.1 µM									> 100 µM		
CCOC(=O)/C(C#N)=C\C=C1/C=CNC2=NCCN21	> 100 µM		> 100 µM	> 100 µM	> 100 µM	> 100 µM	> 100 µM	> 100 µM											
